The values that follow come from US20220160751A1, “METHODS OF TREATMENT OF DISEASES AND DISORDERS ASSOCIATED WITH INCREASED TET LEVEL, INCREASED H19 LEVEL, INCREASED LEVEL OF TGF SIGNALING, OR ANY COMBINATION THEREOF” (YALE UNIVERSITY, priority 2019, published 2022).

Series [1] concerns MED12, TGFBR2 and TSP1 promoters. The experiment in a line: ChIP-qPCR, methylation profiling and QMSP in leiomyoma cells. The format is cell-based, human. Particulars: vs siCon. As for the experimental part: gDNA was extracted from primary leiomyoma cells from one well of 24-well plates using Quick-gDNA MicroPrep (Zymo Research Corporation, Irvine, Calif.; D3021) according to the manufacturer's instructions. For bisulfite treatment, 200 ng of gDNA was used for each column using EZ DNA Methylation-Gold Kit (Zymo, D5006). 100 μl of elution buffer was used to elute gDNA from each column. Real-time quantitative PCR was performed in a 15 μl reaction containing 5 μl of the eluted gDNA using iQSYBRGreen (Bio-Rad, Hercules, Calif.; 1708880) in a Bio-Rad iCycler. Two sets of PCR primers were designed: one for unmethylated and one for methylated DNA sequences. The PCR primers for methylated DNA were used at a final concentration of 0.6 μM in each PCR reaction. PCR was performed by initial denaturation at 95° C. for 5 min, followed by 40 cycles of 30 sec at 95° C., 30 sec at 60° C., and 30 sec at 72° C. Specificity was verified by melting curve analysis and agarose gel electrophoresis. The threshold cycle (Ct) values of each sample were used in the post-PCR data analysis. The relative levels of methylated versus unmethylated DNA sequences are presented.
These experiments were performed as previously described (Zhou J et al., 2015, Nat Commun 6:10221) with minor modifications. Briefly, experiments were performed in a 10-cm plate scale using the Pierce Agarose ChIP Kit (Thermo Scientific, 26156) according to the manufacturer's instructions with minor modifications. Agarose beads were used to pre-bind overnight with antibodies against TET3 (Millipore Sigma, ABE290), H3K4me3 (Cell signaling, C42D8) and H3K27me3 (Cell signaling, C36B11). Preimmune IgG was used as a negative control. Cells were cross-linked with 1% formaldehyde at room temperature for 10 min, and the reaction was stopped by 1× glycine. ChIPs were carried out overnight at 4° C. Primers for the specific promoter regions of MED12, TGFBR2, and TSP1 (FIG. 16A) were used to amplify input and ChIP-purified DNA. The relative enrichments of the indicated DNA regions were calculated using the Percent Input Method according to the manufacturer's instructions and were normalized to % input. Data are presented after normalization against background IgG signals.

In series [2] the test system is LX-2 human hepatic stellate cells. The series is described as follows: qPCR and immunoblotting of gene expression in LX-2 cells. The format is cell-based. As for the experimental part: LX-2 human hepatic stellate cells (Yale Liver Center) were maintained in DMEM (Gibco, 11965-092) supplemented with 10% heat-inactivated fetal bovine serum (Gibco, 26140-079) and 1% PS (penicillin and streptomycin) at 37° C. in 5% humidified CO2 tissue culture incubator. Generally, cells were plated and transfected in a 24-well plate scale. For transfection with siRNA, let-7, or iLet7, 10 pmol of siTET3 (or siCon), let-7 (or miCon), or iLet7 (iCon) were mixed with 25 μl of OPTI-MEM (Gibco, 31985-070) by gentle pipetting. In parallel, 1 μl of Lipofectamine 3000 (ThermoFisher Scientific, L3000015) was mixed with 25 μl of OPTI-MEM. Then, the contents from the two tubes were mixed by gentle pipetting. After incubation for 5 min at RT, the resulting 50 μl solution was used to resuspend cell pellet (5×10^4 cells). After incubation at RT for 10 min, 450 μl of growth medium was added and the cell suspension was transferred into one well of a 24-well plate. For transfection with TET3-expression plasmid pTET3 (pcDNA-Flag-Tet3, Addgene plasmid #60940, (30)) or control vector, 5×10^4 cells per well were seeded in a 24-well plate the night before transfection. The next day, 0.75 μg of pTET3 (or Vec) were mixed with 1 μl of P3000 in 25 μl of OPTI-MEM by gentle pipetting. In parallel, 0.5 μl of Lipofectamine 3000 were mixed with 25 μl of OPTI-MEM. The contents from the two tubes were combined by gentle pipetting and incubated for 5 min at RT. The resulting 50 μl of transfection solution was added to each well of cells seeded in a 24-well plate the night before and from which the growth medium had been removed. After 6 h of incubation in a tissue culture incubator, 500 μl of growth medium were added to each well of cells. For TGF-β1 (Sigma, USA) treatment experiments, transfected cells were incubated in 500 μl of serum-free DMEM containing 5 ng/mL TGF-β1 (diluted with HCl) or HCl (as control) for 24 h or 48 h as indicated.
Total RNA was extracted from cultured cells or liver tissue samples using PureLink RNA Mini Kit (Ambion, 12183018A). 0.8 μg of total RNA was reverse transcribed to cDNA in a reaction volume of 10 μl using PrimeScript RT Reagent Kit (TAKARA, RR037A). Quantitative real-time PCR reactions were carried out using iQSYBRGreen (Bio-Rad) in a Bio-Rad iCycler. Gene expression levels were normalized against housekeeping genes HPRT1 and RPLP0.
For liver tissue samples, 5-10 mg of tissues were homogenized by sonication (Qsonica, Model Q125) in 150 μl of 2×SDS-sample buffer. Samples were immediately heated at 100° C. for 3 min with occasional vertexing. Then, 100 μl of 2×SDS-sample buffer was added to each sample and the 250 μl of tissue lysate were further homogenized by sonication and heated again at 100° C. for 3-5 min with vertexing once every 15 sec. Samples (further diluted at 1:1 with 2×SDS-sample buffer before loading) were loaded 5-10 μl per well onto a 4-15% gradient SDS gel, followed by Western blot analysis. Image J was used to quantify the protein bands.

As to “siTET3: TET3-specific siRNA (human), Ambion 4392420/s47239 (sense CAGCAACUCCUAGAACUGATT; antisense UCAGUUCUAGGAGUUGCUGGA; chemistry not given here)”, the “binding of TET3 to MED12, TGFBR2 and TSP1 promoters (ChIP-qPCR)” value in series [1] (UtLM cells, 48 h) is reported as “significantly reduced”. Besides, in series [1] (UtLM cells), the “H3K4me3 association with promoters” value was “significantly decreased H3K4me3”, the “H3K27me3 association with promoters” value was “increased H3K27me3” and the “decrease of the ratios of H3K4me3/H3K27me3” value is on record as 5-8 fold. The “methylation of CpGs within the CTRRs of MED12, TGFBR2 and TSP1 promoters” value in series [1] (ht-UtLM genome-wide profiling, confirmed in UtLM by QMSP, 48 h) is recorded as “increased methylation of the CpGs within the CTRRs”. Besides, in series [2] (48 h post-transfection, vs siCon or Vec), the “expression of TGFB1, TSP1 and TGFBR2 (mRNA and protein)” value was “decreased expression of TGFB1, TSP1 and TGFBR2”. Besides, the “TGF-β1-induced TGF-β signaling and profibrotic gene expression” value in series [2] (TET3 siRNA 24 h, then TGF-β1 5 ng/mL 24 h) is “the effects were no longer observed”.
